Assay results from patent US10472688B2, “Compositions and methods for producing podophyllotoxin derivatives” (The Board of Trustees of the Leland Stanford Junior …, priority 2015, dated 2019).

What was measured:
[1] = molecular target: T1, (−)-pluviatolide O-methyltransferase (OMT3) (Sinopodophyllum hexandrum, UniProt A0A0N9HMN6); assay: In vitro characterization of recombinant OMT3 (steady state kinetics, substrate specificity); format: biochemical, P. hexandrum; details: for acceptance as substrate by OMT3: (+)-pinoresinol 400 μM, (−)-matairesinol 40 μM, (−)-arctigenin 40 μM, quenched after 2 h
T1 construct: 6xHis (N); made in house; host or cells: E. coli BL21 (DE3), pET28a
T1 sequence (A0A0N9HMN6 1-372): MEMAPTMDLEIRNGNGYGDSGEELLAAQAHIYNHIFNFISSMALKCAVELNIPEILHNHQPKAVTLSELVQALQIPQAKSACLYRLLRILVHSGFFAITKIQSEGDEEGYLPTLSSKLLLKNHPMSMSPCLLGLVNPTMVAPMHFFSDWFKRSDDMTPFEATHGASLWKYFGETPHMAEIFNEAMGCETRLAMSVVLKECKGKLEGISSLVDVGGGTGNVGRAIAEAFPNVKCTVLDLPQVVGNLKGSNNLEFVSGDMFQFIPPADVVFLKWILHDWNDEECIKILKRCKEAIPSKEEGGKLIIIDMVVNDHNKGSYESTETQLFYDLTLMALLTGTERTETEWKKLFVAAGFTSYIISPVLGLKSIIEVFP

CYP71BE54 = molecular target: T2, CYP71BE54 (Sinopodophyllum hexandrum, UniProt A0A0N9HT29); assay: CYP71BE54-microsome assays; details: 4 mg/mL microsomes, 1 mM NADPH, 50 μM substrate, 30° C., 2 h
T2 sequence (A0A0N9HT29 1-507): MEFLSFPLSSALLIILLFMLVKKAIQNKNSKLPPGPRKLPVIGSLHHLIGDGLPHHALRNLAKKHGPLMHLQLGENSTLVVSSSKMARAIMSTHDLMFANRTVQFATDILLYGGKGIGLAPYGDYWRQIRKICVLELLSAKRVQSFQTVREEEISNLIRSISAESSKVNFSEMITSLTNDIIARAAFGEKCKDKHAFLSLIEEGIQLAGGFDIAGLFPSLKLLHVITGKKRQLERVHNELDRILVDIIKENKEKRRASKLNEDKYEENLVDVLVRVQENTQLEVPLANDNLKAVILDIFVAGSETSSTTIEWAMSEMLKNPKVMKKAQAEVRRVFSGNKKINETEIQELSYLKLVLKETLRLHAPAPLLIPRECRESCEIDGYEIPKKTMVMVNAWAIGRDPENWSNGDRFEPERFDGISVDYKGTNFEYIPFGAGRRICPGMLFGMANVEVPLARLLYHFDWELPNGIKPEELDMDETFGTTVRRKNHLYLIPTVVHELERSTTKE
Method: (§1) Total reaction volumes were 50 μL.

2-ODD = molecular target: T3, 2-ODD (Sinopodophyllum hexandrum, UniProt A0A0N9HQ36); assay: 2-ODD enzyme assays; format: biochemical, P. hexandrum; details: 5 μg/mL 2-ODD, 2-oxoglutarate, FeSO4, 30 μM substrate, 30° C., 2 h
T3 construct: 6xHis (C); made in house; host or cells: E. coli BL21 (DE3), pET24b
T3 sequence (A0A0N9HQ36 whole entry): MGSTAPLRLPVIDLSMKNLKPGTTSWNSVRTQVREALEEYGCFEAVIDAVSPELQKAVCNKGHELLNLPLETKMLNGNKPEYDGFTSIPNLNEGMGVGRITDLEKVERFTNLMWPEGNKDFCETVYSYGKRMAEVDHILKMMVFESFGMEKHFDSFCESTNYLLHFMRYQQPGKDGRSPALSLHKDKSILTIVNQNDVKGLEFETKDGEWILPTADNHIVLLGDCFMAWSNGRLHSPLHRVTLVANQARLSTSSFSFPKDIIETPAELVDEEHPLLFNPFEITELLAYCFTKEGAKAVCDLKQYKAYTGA
Method: The above protocol was also followed for the expression and purification of 2-ODD from BL21 (DE3) E. coli harboring pET24b:2-ODD except for the following changes: the 2 L culture at OD600=0.6 was cooled to 16° C. and induced with 100 μM IPTG. The culture was further incubated at 16° C. for 24 h and cooled in ice water before proceeding with purification.
Assays lacking enzyme or 2-oxoglutarate served as negative controls.
as §1

CYP71CU1 = molecular target: T4, CYP71CU1 (Sinopodophyllum hexandrum, UniProt A0A0N9HTU1); assay: CYP71CU1-microsome assays; details: 1 mg/mL microsomes, 1 mM NADPH, 30 or 50 μM substrate, 30° C., 2 h
T4 sequence (A0A0N9HTU1 1-493): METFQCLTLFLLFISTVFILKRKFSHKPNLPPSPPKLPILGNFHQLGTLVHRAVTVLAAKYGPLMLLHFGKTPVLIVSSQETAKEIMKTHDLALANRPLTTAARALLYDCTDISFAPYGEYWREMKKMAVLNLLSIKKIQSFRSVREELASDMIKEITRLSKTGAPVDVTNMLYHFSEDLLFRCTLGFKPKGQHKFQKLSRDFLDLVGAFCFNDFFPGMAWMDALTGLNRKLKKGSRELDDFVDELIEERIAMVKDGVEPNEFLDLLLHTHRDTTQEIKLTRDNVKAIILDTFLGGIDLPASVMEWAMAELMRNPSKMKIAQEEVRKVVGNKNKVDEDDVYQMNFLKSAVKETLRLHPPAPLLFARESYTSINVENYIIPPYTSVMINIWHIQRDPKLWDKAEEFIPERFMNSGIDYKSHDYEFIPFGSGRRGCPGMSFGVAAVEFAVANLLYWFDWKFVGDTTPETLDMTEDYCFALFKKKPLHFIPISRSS
Method: Yeast growth, induction and microsome preparation were performed according to Pompon et al. Microsomes enriched with P450 were isolated in 50 mM Tris-Cl, pH=7.4, 20% glycerol, 1 mM EDTA, flash-frozen as pellets in liquid nitrogen and kept at −80° C. for long term storage. Total protein content was estimated by measuring UV absorbance at 280 nm on a NanoDrop 1000 spectrophotometer.
CYP71CU1-microsome assays contained 1 mg/mL of CYP71CU1-microsomes, 1 mM NADPH, 30 or 50 μM of substrate and 100 mM NaCl in sodium phosphate buffer (50 mM, pH 7.4). Assays with microsomes from WAT11 harboring an empty vector or lacking NADPH served as negative controls. […] Enzyme assays with both CYP71CU1-microsomes and OMT1 contained 1 mg/mL of CYP71CU1-microsomes, 1 mM NADPH, 10 μg/mL of purified OMT1, 1 mM SAM, 30 or 50 μM of substrate and 100 mM NaCl in sodium phosphate buffer (50 mM, pH 7.4).
All substrates [(−)-matairesinol, (−)-arctigenin, (−)-pluviatolide, (−)-5′-desmethoxy-yatein, (−)-yatein, (−)-deoxypodophyllotoxin, and (−)-podophyllotoxin] were derived from a 100% DMSO stock; final concentration of DMSO in enzyme assays was kept constant at 5%. Total reaction volumes were 50 μL. Reactions were initiated by the addition of enzyme and incubated at 30° C.
After 2 h of incubation, reactions were quenched by the addition of 1 volume of acetonitrile with 0.1% TFA and clarified by centrifugation for 10 min at 17,000 g.

OMT1 = OMT1 enzyme assays; format: biochemical, P. hexandrum; details: 10 μg/mL OMT1, 1 mM SAM, 30 or 50 μM substrate, 30° C., 2 h
Method: The above protocol was also followed for the expression and purification of OMT1 from BL21 (DE3) E. coli harboring pET24b:OMT1.
Assay lacking SAM served as negative control.
as §1

Row | Compound | acceptance as substrate by OMT3 [1] | activity of CYP71BE54-enriched microsomes on substrate (CYP71BE54) | activity of CYP71CU1 on substrate (CYP71CU1) | activity of OMT1 on substrate (OMT1) | other results
1 | COc1cc(C2OCC3C(c4ccc(O)c(OC)c4)OCC23)ccc1O (single isomer, unassigned; (+)) [(+)-pinoresinol] | did not turn over | – | – | – | –
2 | COc1ccc(C[C@H]2C(=O)OC[C@@H]2Cc2ccc3c(c2)OCO3)cc1OC [(−)-5′-desmethoxy-yatein] | – | No activity | – | – | activity of 2-ODD on substrate, compared to (−)-yatein (2-ODD): some activity
3 | COc1cc(C[C@H]2C(=O)OC[C@@H]2Cc2ccc(OC)c(OC)c2)ccc1O [(−)-arctigenin] | much lower efficiency | – | not active | not active | –
4 | COc1cc(C[C@H]2COC(=O)[C@@H]2Cc2ccc(O)c(OC)c2)ccc1O [(−)-matairesinol] | much lower efficiency | – | not active | not active | –
5 | COc1cc(C[C@H]2C(=O)OC[C@@H]2Cc2ccc3c(c2)OCO3)ccc1O [(−)-pluviatolide] | – | – | not active | not active | activity of 2-ODD on substrate, compared to (−)-yatein (2-ODD): negligible activity; kcat ([1]; (−)-pluviatolide methylation by OMT3 purified from E. coli, 1 mM SAM, 22° C., pH 7.4): 0.72 s⁻¹; Km ([1]; (−)-pluviatolide methylation by OMT3 purified from E. coli, 1 mM SAM, 22° C., pH 7.4, read-out: apparent Km): 1.4 µM
6 | COc1cc([C@@H]2c3cc4c(cc3[C@H](O)[C@H]3COC(=O)[C@H]23)OCO4)cc(OC)c1OC [(−)-podophyllotoxin] | – | No activity | – | – | –
7 | COc1cc(C[C@H]2C(=O)OC[C@@H]2Cc2ccc3c(c2)OCO3)cc(OC)c1OC [(−)-yatein] | – | No activity | – | – | –
